Experimental data published in PubChem BioAssay (NCI).
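Where inhibition never reached the appropriate level, the endpoint shown equals the highest concentration tested. Otherwise, values were interpolated linearly from a five-concentration, 48-hour dose response in 96-well plates. TGI denotes the concentration required for complete inhibition of growth.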

Key:
Test in all cases: NCI tumour cell line growth inhibition, 48 h
HOP-92 NSCLC = tested on: HOP-92 NSCLC
ACHN renal = tested on: ACHN renal
A498 renal = tested on: A498 renal
KM12 colon = tested on: KM12 colon
NCI-H23 lung = tested on: NCI-H23 lung
K-562 leukemia = tested on: K-562 leukemia
TK-10 renal = tested on: TK-10 renal
EKVX NSCLC = tested on: EKVX NSCLC
MDA-MB-231 breast = tested on: MDA-MB-231 breast
IGROV1 ovarian = tested on: IGROV1 ovarian
RPMI-8226 leukemia = tested on: RPMI-8226 leukemia
SNB-19 CNS = tested on: SNB-19 CNS
SK-OV-3 ovarian = tested on: SK-OV-3 ovarian
786-0 renal = tested on: 786-0 renal
SF-539 CNS = tested on: SF-539 CNS
SK-MEL-2 melanoma = tested on: SK-MEL-2 melanoma
CAKI-1 renal = tested on: CAKI-1 renal
SF-295 CNS = tested on: SF-295 CNS
HT29 colon = tested on: HT29 colon
HCT-116 colon = tested on: HCT-116 colon
U251 CNS = tested on: U251 CNS
SN12C renal = tested on: SN12C renal
OVCAR-3 ovarian = tested on: OVCAR-3 ovarian
UACC-62 melanoma = tested on: UACC-62 melanoma
MALME-3M melanoma = tested on: MALME-3M melanoma
MCF7 breast = tested on: MCF7 breast
OVCAR-5 ovarian = tested on: OVCAR-5 ovarian
DU-145 prostate = tested on: DU-145 prostate
MOLT-4 leukemia = tested on: MOLT-4 leukemia
OVCAR-4 ovarian = tested on: OVCAR-4 ovarian
NCI-H522 lung = tested on: NCI-H522 lung
COLO 205 colon = tested on: COLO 205 colon
NCI-H460 lung = tested on: NCI-H460 lung
LOX IMVI melanoma = tested on: LOX IMVI melanoma
OVCAR-8 ovarian = tested on: OVCAR-8 ovarian
SF-268 CNS = tested on: SF-268 CNS
T-47D breast = tested on: T-47D breast
MDA-MB-435 = tested on: MDA-MB-435
HCT-15 colon = tested on: HCT-15 colon
MDA-N = tested on: MDA-N
M14 melanoma = tested on: M14 melanoma
HS 578T breast = tested on: HS 578T breast
A549 NSCLC = tested on: A549 NSCLC
RXF 393 renal = tested on: RXF 393 renal
PC-3 prostate = tested on: PC-3 prostate
UACC-257 melanoma = tested on: UACC-257 melanoma
UO-31 renal = tested on: UO-31 renal
SR leukemia = tested on: SR leukemia
NCI/ADR-RES ovarian = tested on: NCI/ADR-RES ovarian
HL-60(TB) leukemia = tested on: HL-60(TB) leukemia
SK-MEL-28 melanoma = tested on: SK-MEL-28 melanoma
CCRF-CEM leukemia = tested on: CCRF-CEM leukemia
BT-549 breast = tested on: BT-549 breast
SW-620 colon = tested on: SW-620 colon
SK-MEL-5 melanoma = tested on: SK-MEL-5 melanoma
HOP-62 NSCLC = tested on: HOP-62 NSCLC
NCI-H226 lung = tested on: NCI-H226 lung
HCC-2998 colon = tested on: HCC-2998 colon
SNB-75 CNS = tested on: SNB-75 CNS

CN(C)CCCNC(=O)c1cc2/c(=C\c3ccc(N(C)C)cc3)c3ccccc3n2[n+]1C
TGI (HOP-92 NSCLC): 56.4 µM | TGI (ACHN renal): > 100 µM | TGI (A498 renal): > 100 µM | TGI (KM12 colon): 61.6 µM | TGI (NCI-H23 lung): 59.5 µM | TGI (K-562 leukemia): 35.4 µM | TGI (TK-10 renal): > 100 µM | TGI (EKVX NSCLC): 39.7 µM | TGI (MDA-MB-231 breast): 64.4 µM | TGI (IGROV1 ovarian): 37.1 µM | TGI (RPMI-8226 leukemia): 53.6 µM | TGI (SNB-19 CNS): > 100 µM | TGI (SK-OV-3 ovarian): > 100 µM | TGI (786-0 renal): > 100 µM | TGI (SF-539 CNS): 39.4 µM | TGI (SK-MEL-2 melanoma): 35.6 µM | TGI (CAKI-1 renal): > 100 µM | TGI (SF-295 CNS): > 100 µM | TGI (HT29 colon): 82.8 µM | TGI (HCT-116 colon): 64.2 µM | TGI (U251 CNS): 69.2 µM | TGI (SN12C renal): 13.5 µM | TGI (OVCAR-3 ovarian): 52.2 µM | TGI (UACC-62 melanoma): 34 µM | TGI (MALME-3M melanoma): 38.4 µM | TGI (MCF7 breast): 50.7 µM | TGI (OVCAR-5 ovarian): > 100 µM | TGI (DU-145 prostate): > 100 µM | TGI (MOLT-4 leukemia): > 100 µM | TGI (OVCAR-4 ovarian): 21.4 µM | TGI (NCI-H522 lung): 10.9 µM | TGI (COLO 205 colon): 21.3 µM | TGI (NCI-H460 lung): > 100 µM | TGI (LOX IMVI melanoma): > 100 µM | TGI (OVCAR-8 ovarian): > 100 µM | TGI (SF-268 CNS): 90.9 µM | TGI (T-47D breast): 15.9 µM | TGI (MDA-MB-435): 58.7 µM | TGI (HCT-15 colon): > 100 µM | TGI (MDA-N): 78.4 µM | TGI (M14 melanoma): 39 µM | TGI (HS 578T breast): > 100 µM | TGI (A549 NSCLC): > 100 µM | TGI (RXF 393 renal): > 100 µM | TGI (PC-3 prostate): > 100 µM | TGI (UACC-257 melanoma): 51.3 µM | TGI (UO-31 renal): > 100 µM | TGI (SR leukemia): 54.1 µM | TGI (NCI/ADR-RES ovarian): > 100 µM | TGI (HL-60(TB) leukemia): 46 µM | TGI (SK-MEL-28 melanoma): 74.8 µM | TGI (CCRF-CEM leukemia): 90.1 µM | TGI (BT-549 breast): > 100 µM | TGI (SW-620 colon): > 100 µM | TGI (SK-MEL-5 melanoma): 31.3 µM | TGI (HOP-62 NSCLC): > 100 µM

O=C1C(Cl)=C(N2C(=O)CCC2=O)C(=O)c2ccccc21
TGI (HOP-92 NSCLC): 26.6 µM | TGI (ACHN renal): 29.1 µM | TGI (A498 renal): > 100 µM | TGI (KM12 colon): > 100 µM | TGI (NCI-H23 lung): 79.8 µM | TGI (K-562 leukemia): 17.1 µM | TGI (TK-10 renal): > 100 µM | TGI (EKVX NSCLC): > 100 µM | TGI (MDA-MB-231 breast): > 100 µM | TGI (IGROV1 ovarian): > 100 µM | TGI (SNB-19 CNS): > 100 µM | TGI (SK-OV-3 ovarian): > 100 µM | TGI (786-0 renal): 37.9 µM | TGI (SF-539 CNS): > 100 µM | TGI (SK-MEL-2 melanoma): > 100 µM | TGI (CAKI-1 renal): 38.1 µM | TGI (SF-295 CNS): > 100 µM | TGI (HT29 colon): > 100 µM | TGI (HCT-116 colon): 49.7 µM | TGI (U251 CNS): 63.3 µM | TGI (SN12C renal): 33.6 µM | TGI (NCI-H226 lung): > 100 µM | TGI (OVCAR-3 ovarian): 34.3 µM | TGI (UACC-62 melanoma): > 100 µM | TGI (MCF7 breast): 33.7 µM | TGI (OVCAR-5 ovarian): 49.7 µM | TGI (DU-145 prostate): 95 µM | TGI (MOLT-4 leukemia): > 100 µM | TGI (NCI-H522 lung): 59.6 µM | TGI (COLO 205 colon): 32.8 µM | TGI (NCI-H460 lung): > 100 µM | TGI (LOX IMVI melanoma): 86.4 µM | TGI (OVCAR-8 ovarian): > 100 µM | TGI (SF-268 CNS): > 100 µM | TGI (T-47D breast): > 100 µM | TGI (HCC-2998 colon): 60.3 µM | TGI (MDA-MB-435): 44 µM | TGI (HCT-15 colon): 27.2 µM | TGI (MDA-N): 35 µM | TGI (M14 melanoma): > 100 µM | TGI (HS 578T breast): > 100 µM | TGI (SNB-75 CNS): > 100 µM | TGI (A549 NSCLC): > 100 µM | TGI (RXF 393 renal): 45.7 µM | TGI (PC-3 prostate): > 100 µM | TGI (UACC-257 melanoma): 57.5 µM | TGI (UO-31 renal): 34.4 µM | TGI (SR leukemia): 82.5 µM | TGI (NCI/ADR-RES ovarian): > 100 µM | TGI (HL-60(TB) leukemia): 6.73 µM | TGI (SK-MEL-28 melanoma): 48 µM | TGI (CCRF-CEM leukemia): 21.8 µM | TGI (BT-549 breast): 37.3 µM | TGI (SW-620 colon): 56.9 µM | TGI (SK-MEL-5 melanoma): 36.7 µM | TGI (HOP-62 NSCLC): > 100 µM

CO[C@@H]1C[C@H](OC(N)=O)[C@@H]2C=C[C@@H]3/C=C(C)/C=C/[C@@H](C)[C@H]([C@H](C)[C@H](O)[C@@H](C)NC(C)=O)OC(=O)/C=C/C=C(C)\C=C\[C@]3(C)[C@@H]2C1
TGI (HOP-92 NSCLC): < 0.01 µM | TGI (ACHN renal): 2.67 µM | TGI (A498 renal): 0.496 µM | TGI (NCI-H23 lung): 13.1 µM | TGI (TK-10 renal): 3.55 µM | TGI (EKVX NSCLC): 5.34 µM | TGI (MDA-MB-231 breast): 0.0634 µM | TGI (IGROV1 ovarian): 3.28 µM | TGI (RPMI-8226 leukemia): 3.78 µM | TGI (SNB-19 CNS): 17.7 µM | TGI (SK-OV-3 ovarian): 3.66 µM | TGI (786-0 renal): 6.62 µM | TGI (SF-539 CNS): 1.46 µM | TGI (SK-MEL-2 melanoma): 7.09 µM | TGI (CAKI-1 renal): 2.67 µM | TGI (SF-295 CNS): 1.51 µM | TGI (HT29 colon): 1.93 µM | TGI (HCT-116 colon): 1.25 µM | TGI (U251 CNS): 1.61 µM | TGI (SN12C renal): 8.72 µM | TGI (NCI-H226 lung): < 0.01 µM | TGI (OVCAR-3 ovarian): 3.65 µM | TGI (UACC-62 melanoma): 1.4 µM | TGI (MALME-3M melanoma): 3.53 µM | TGI (MCF7 breast): 11.3 µM | TGI (OVCAR-5 ovarian): 9.19 µM | TGI (DU-145 prostate): 9.01 µM | TGI (OVCAR-4 ovarian): 9.75 µM | TGI (NCI-H522 lung): 1.44 µM | TGI (COLO 205 colon): 11.1 µM | TGI (NCI-H460 lung): 1.58 µM | TGI (LOX IMVI melanoma): < 0.01 µM | TGI (OVCAR-8 ovarian): 13.6 µM | TGI (SF-268 CNS): 4.95 µM | TGI (T-47D breast): 11 µM | TGI (HCC-2998 colon): 1.39 µM | TGI (MDA-MB-435): 4.36 µM | TGI (HCT-15 colon): 6.77 µM | TGI (MDA-N): 6.03 µM | TGI (M14 melanoma): 1.62 µM | TGI (HS 578T breast): 0.264 µM | TGI (A549 NSCLC): 10 µM | TGI (RXF 393 renal): 3.06 µM | TGI (PC-3 prostate): 10.8 µM | TGI (UACC-257 melanoma): 3.04 µM | TGI (UO-31 renal): 0.645 µM | TGI (SR leukemia): 0.887 µM | TGI (NCI/ADR-RES ovarian): 6.11 µM | TGI (HL-60(TB) leukemia): 3.32 µM | TGI (SK-MEL-28 melanoma): 1.84 µM | TGI (BT-549 breast): > 28.5 µM | TGI (SW-620 colon): 10.3 µM | TGI (HOP-62 NSCLC): 4.81 µM
